Structures are written as SMILES. Counter-ions that a name gives are not always drawn. Like-named read-outs stand apart in the source and are kept apart here.

This is an account of results in patent US9873904B2, “Detection of acid-producing bacteria” (3M INNOVATIVE PROPERTIES COMPANY, priority 2009, dated 2018).

The subject of experiment [1] is L. lactis subspecies lactis. The format is cell-based, Lactococcus lactis subspecies lactis. Particulars: 30 C. The source says: (§1) DIFCO MRS broth was obtained from BD-Diagnostic Systems (Sparks, Md.).
(§2) Four strains of lactic acid-producing bacteria were isolated from processed meats. Two of the cultures were identified as Leuconostoc mesenteroides and Weissella viridescens, Lactococcus lactis subspecies lactis and Streptococcus oralis.
(§3) Bromcresol purple (BCP) pH indicators was obtained from Eastman Kodak (Rochester, N.Y.). Chlorophenol red (CPR) (CAS NO. 4430-20-0) was obtained from Sigma-Aldrich (St. Louis, Mo.). The pH indicators were individually added to MRS broth to obtainfinal concentrations of BCP or CPR of 0.5 mM. After dissolving the pH indicator, the solutions were filter-sterilized.
(§4) Bacterial cultures were prepared by inoculating pure cultures into tryptic soy broth or MRS broth. The inoculated broth was incubated overnight at 25° C. The overnight cultures were diluted in the MRS broth (containing bromcresol purple) to obtain a suspension of approximately 10-100 colony-forming units (CFU) per milliliter. […] Inoculated plates were incubated at temperatures at 25°, 30° and 32° C., respectively. The plates were visually inspected for signs of bacterial growth.
(§5) A concentrated solution of sterile chlorophenol red was added to the MRS diluent as described in Example 2. A concentrated solution of sterile dipotassium phosphate (pH 7.0+/−0.2) was added to the MRS diluent to provide an additional 28 mM phosphate buffer in the diluent. Lactic acid bacterial cultures were prepared and diluted into the MRS/chlorophenol red solution as described in Example 1 with the exception that S. oralis was not tested in this experiment. […] The plates were incubated at 30° C. and the plates were visually inspected for signs of bacterial growth.
(§6) A concentrated solution of sterile chlorophenol red was added to the MRS diluent as described in Example 2. A concentrated solution of sterile dipotassium phosphate (pH 7.0+/−0.2) was added to the MRS diluent to provide and additional 28 mM phosphate buffer in the diluent. Lactic acid bacterial cultures were prepared and diluted into the MRS/chlorophenol red solution as described in Example 1 with the exception that S. oralis was not tested in this experiment. […] The plates were incubated at 30° C. and the plates were visually inspected for signs of bacterial growth.

Another experiment has as its system S. oralis. The format is cell-based, Streptococcus oralis. Particulars: Example 1; indicator 0.02 g/l or 0.04 g/l; buffer addition None; 25 C, 30 C; 40-72 hr.
Source text: as §1, §2, §3, §4
A concentrated solution of sterile chlorophenol red was added to the MRS diluent as described in Example 2. […]

Another experiment has as its system Leuconostoc. The format is cell-based, Leuconostoc mesenteroides. The settings on record: 30 C.
Source text: as §1, §2, §3, §4, §5, §6

A further experiment deals with Weissella. In kind it is cell-based, Weissella viridescens. The settings on record: 30 C.
Source text: as §1, §2, §3, §4, §5, §6

Experiment [2] relates to L. lactis subspecies lactis. The experiment can be described thus: Colony appearance on thin film culture devices containing pH indicators (MRS/Letheen diluent). The format is cell-based, Lactococcus lactis subspecies lactis. Particulars: indicator 0.5 mM. The text has this: (§7) The aliquot were separately filter-sterilized.
The next experiment has as its system L. mesenteroides. Described as above. In kind it is cell-based, Leuconostoc mesenteroides. Particulars: indicator 0.5 mM.
Source text: as §7

For experiment [3], the system named is Lactobacillus brevis. Put plainly: Detection of lactic acid bacteria with Nystatin on Plate I. The format is cell-based. The settings on record: 500 U/mL Nystatin, 28 degrees Celsius, 48-144 hr, 99.9% CO2. As to the method: (§8) Overnight cultures of Lactobacillus brevis, Pediococcus damnosus and 5 strains of Saccharomyces cerevisiae were grown in MRS broth (bacteria cultures) or yeast peptone dextrose (YPD) broth (yeast cultures). These cultures were serially diluted, yielding suspensions that contained approximately 100 cfu/mL of the organisms. A second series of suspensions were prepared and 500 U/mL Nystatin (CAS No. 1400-61-9 from Sigma) were added to the suspensions. A stock solution was prepared by adding Nystatin solids to 100% ethanol to make a solution of 25,000 U/mL which was then added to the bacteria/yeast suspensions to obtain the desired Nystatin concentration. One milliliter of each of the different solutions was then inoculated onto Plate I. The inoculated plates were incubated at 28 degrees Celsius for 48-144 hr in a 99.9% CO2 incubator.

Another experiment concerns Pediococcus damnosus. The description is as above. In kind it is cell-based. Particulars: 500 U/mL Nystatin, 28 degrees Celsius, 48-144 hr, 99.9% CO2. As for the experimental part: as §8
Experiment [4] deals with Saccharomyces cerevisiae. Described as above. The settings on record: 500 U/mL Nystatin, 28 degrees Celsius, 48-144 hr, 99.9% CO2. In kind it is cell-based. As for the experimental part: as §8
For experiment [5], the system named is Lactobacillus brevis. The experiment can be described thus: Colony growth with cycloheximide on Plate I. In kind it is cell-based. The settings on record: with cycloheximide 100 ppm, 28° C., 48 hr, 99.9% carbon dioxide. As to the method:
(§9) Overnight cultures of Lactobacillus brevis in MRS broth and Saccharomyces cerevisiae in yeast peptone dextrose (YPD) broth were prepared as described in Example 7. The cultures were serially diluted to obtain suspensions, each containing approximately 100 cfu/ml of the individual species (either L. brevis or S. cerevisiae). A third suspension was prepared containing 100 cfu/mL total of both species. A second set of 3 suspensions was prepared in the same manner (only L. brevis, only S. cerevisiae, and both organisms) except that each final solution also contained 100 ppm (10 mg/mL) cycloheximide ((CAS No. 66-81-9), sold under the tradename Actidione and obtained from Sigma (Fluka). The cycloheximide was added by using a stock solution of cycloheximide prepared by dissolving 100 ppm of cycloheximide to Butterfield's Buffer and sterile filtering the solution through a 0.2 μm filter. The stock solution was added to the diluent buffer.
(§10) One milliliter of each of the bacterial suspensions was used to inoculate Plate I. The plates were incubated at 28° C. for 48 hr in an incubator having an environment of 99.9% carbon dioxide. Growth indicates the presence of colonies.

Experiment [6] deals with Saccharomyces cerevisiae. The experiment can be described thus: Colony growth with cycloheximide on Plate I. In kind it is cell-based. As for the experimental part: as §9, with “A second set of 3 suspensions was prepared in the same manner (only L. brevis, only S. cerevisiae, and both organisms) except that each final solution also contained 100 ppm (10 mg/mL) cycloheximide ((CAS No. 66-81-9), sold under the tradename Actidione and obtained from Sigma (Fluka).” left out
as §10

Experiment [7] has as its system Lactobacillus brevis and Saccharomyces. Put plainly: Colony growth with cycloheximide on Plate I. In kind it is cell-based, Lactobacillus brevis and Saccharomyces cerevisiae. As for the experimental part:
as §9, with “A second set of 3 suspensions was prepared in the same manner (only L. brevis, only S. cerevisiae, and both organisms) except that each final solution also contained 100 ppm (10 mg/mL) cycloheximide ((CAS No. 66-81-9), sold under the tradename Actidione and obtained from Sigma (Fluka).” left out
as §10

The mark [8] stands for this setting: Example 1, indicator 0.02 g/l or 0.04 g/l, buffer addition None, 25 C, 18-24 hr.
[9] abbreviates: Example 1, indicator 0.02 g/l or 0.04 g/l, buffer addition None, 25 C, 40-72 hr.
The mark [10] stands for this setting: Example 2, indicator 0.21 g/l, buffer addition None, 18-24 hr.
Where [11] appears, read: Example 2, indicator 0.21 g/l, buffer addition None, 40-72 hr.
Where [12] appears, read: Example 3, indicator 0.21 g/l, buffer addition 28 mM, 18-24 hr.
[13] abbreviates: Example 3, indicator 0.21 g/l, buffer addition 28 mM, 40-72 hr.
Where [14] appears, read: with cycloheximide 100 ppm, 28° C., 48 hr, 99.9% carbon dioxide.

On to `Cc1cc(C2(c3cc(C)c(O)c(Br)c3)OS(=O)(=O)c3ccccc32)cc(Br)c1O` [Bromcresol Purple, Bromcresol purple], for which the Observations result in experiment [1] (setting [8]) is “L. lactis subspecies lactis: Colonies with acid zones. No gas bubbles”; in [1] (setting [9]) it was “L. lactis subspecies lactis: Colonies with acid zones. No gas bubbles”; in the experiment with S. oralis, “S. oralis: Acid zones. No visible colonies or gas bubbles”; in the experiment with Leuconostoc (setting [9]), “Leuconostoc: Acid zones. No visible colonies or gas bubbles”; in the experiment on Weissella (setting [8]) it was “Weissella: Acid zones without visible colonies. No gas bubbles”; in the experiment with Weissella (setting [9]) it was “Weissella: Acid zones and gas bubbles. Pale colonies”.
Regarding `Cc1c(C2(c3cc(Br)c(O)c(Br)c3C)OS(=O)(=O)c3ccccc32)cc(Br)c(O)c1Br` [Bromocresol Green, Bromocresol Green sodium salt], the “24-hour Results” value in experiment [2] (32° C.) is “Pale yellow zones”; with L. mesenteroides (25° C.), “Colonies, yellow zones”; with L. mesenteroides (32° C.) it was “Colonies, yellow zones”.
As for `O=C1C(Br)=CC(=C(c2cc(Br)c(O)c(Br)c2)c2ccccc2S(=O)(=O)[O-])C=C1Br.[Na+]` [Bromphenol Blue, Bromphenol Blue sodium salt], the “48-hour Results” value in experiment [2] (25° C.) is “Pale colonies”; in experiment [2] (32° C.) it was “pale colonies”; in the experiment with L. mesenteroides (32° C.) it was “Pale colonies, gas bubbles”. Further, the “72-hour Results” value in experiment [2] (25° C.) was “Colonies, gas”; in [2] (32° C.) it was “Colonies, gas”; in the experiment on L. mesenteroides (32° C.), “Pale colonies, gas bubbles”.
For `O=S1(=O)OC(c2ccc(O)c(Cl)c2)(c2ccc(O)c(Cl)c2)c2ccccc21` [Chlorophenol Red, Chlorophenol red], the Observations entry in [1] (setting [10]) is “Acid zones were visible for all three microorganisms tested”; in [1] (setting [11]), “L. lactis subspecies lactis: Colonies with acid zones and gas bubbles”; in experiment [1] (setting [12]), “Acid zones visible with all three strains”; in [1] (setting [13]) it was “L. lactis subspecies lactis: Colonies with acid zones and gas bubbles”; in the experiment with Leuconostoc (setting [10]), “Acid zones were visible for all three microorganisms tested”; in the experiment on Leuconostoc (setting [11]), “Leuconostoc: Acid zones and gas bubbles. No visible colonies”. Moreover, the Observations result in the experiment with Leuconostoc (setting [12]) is “Acid zones visible with all three strains”; in the experiment with Leuconostoc (setting [13]) it was “Leuconostoc: Acid zones. No visible colonies”; in the experiment on Weissella (setting [10]), “Acid zones were visible for all three microorganisms tested”; in the experiment on Weissella (setting [11]), “Weissella: Colonies with acid zones and gas bubbles”; in the experiment with Weissella (setting [12]), “Acid zones visible with all three strains”; with Weissella (setting [13]) it was “Weissella: Colonies with acid zones and gas bubbles”. In addition, the “24-hour Results” value in experiment [2] (32° C.) is given as “Colonies; yellow zones”; in the experiment on L. mesenteroides (32° C.), “Yellow zones”. Further, the “48-hour Results” value in experiment [2] (32° C.) is “Colonies; yellow zones”; in the experiment with L. mesenteroides (32° C.), “Yellow zones, gas”.
Regarding `C[C@@H]1[C@H](O)[C@@H](C)/C=C/C=C/CC/C=C/C=C/C=C/C=C/C(O[C@H]2O[C@H](C)[C@@H](O)[C@H](N)[C@@H]2O)CC2O[C@](O)(CC(O)C(O)CCC(O)CC(O)CC(O)CC(=O)O[C@H]1C)CC(O)C2C(=O)O` (stereo partly drawn) [Nystatin], the colony growth result with Lactobacillus brevis [3] was “grew whether Nystatin was present or not”; in the experiment on Pediococcus damnosus, “grew whether Nystatin was present or not”; in the experiment on Saccharomyces cerevisiae [4], “grew only on the plates that did not contain Nystatin”.
`C[C@@H]1C[C@@H]([C@H](O)CC2CC(=O)NC(=O)C2)C(=O)[C@@H](C)C1` [cycloheximide]: the “Observation (colony growth)” value was “Growth - 1 distinct colony morphology” in the experiment with Lactobacillus brevis [5], “No growth” in the experiment with Saccharomyces cerevisiae [6] (setting [14]) and “Growth - 1 distinct colony morphology” in [7] (setting [14]). For the same compound, in the experiment on Saccharomyces cerevisiae [6] (cycloheximide 5, 10, 40 and 100 ppm, only S. cerevisiae), the growth entry is “no growth”. Further, the colony morphology entry in [7] (cycloheximide 5, 10, 40 and 100 ppm) is recorded as “one distinct colony morphology”.
